From publication PMC5513037, “Examining the influence of specificity ligands and ATP-competitive ligands on the overall effectiveness of bivalent kinase inhibitors” (Proteome Science, 2017)

Experiments:
Assay in all cases: KAM-matrix competition in K562 lysate;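 as to 0.001 uM KAM: median log10 fold change of treatment over DMSO control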;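 as to 0.01 uM KAM: median log10 fold change of treatment over DMSO control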;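 as to 0.1 uM KAM: median log10 fold change of treatment over DMSO control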;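 as to 1 uM KAM: median log10 fold change of treatment over DMSO control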;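 as to 10 uM KAM: median log10 fold change of treatment over DMSO control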
Assay type in all cases: binding
ADCK1 = molecular target: T1, ADCK1 (Homo sapiens, UniProt Q86TW2);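 as to 0.001 uM KAM: median log10 fold change of treatment over DMSO control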;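 as to 0.01 uM KAM: median log10 fold change of treatment over DMSO control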;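 as to 0.1 uM KAM: median log10 fold change of treatment over DMSO control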;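 as to 1 uM KAM: median log10 fold change of treatment over DMSO control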;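 as to 10 uM KAM: median log10 fold change of treatment over DMSO control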
T1 construct: endogenous in cells; host or cells: K562
T1 sequence (Q86TW2 1-530): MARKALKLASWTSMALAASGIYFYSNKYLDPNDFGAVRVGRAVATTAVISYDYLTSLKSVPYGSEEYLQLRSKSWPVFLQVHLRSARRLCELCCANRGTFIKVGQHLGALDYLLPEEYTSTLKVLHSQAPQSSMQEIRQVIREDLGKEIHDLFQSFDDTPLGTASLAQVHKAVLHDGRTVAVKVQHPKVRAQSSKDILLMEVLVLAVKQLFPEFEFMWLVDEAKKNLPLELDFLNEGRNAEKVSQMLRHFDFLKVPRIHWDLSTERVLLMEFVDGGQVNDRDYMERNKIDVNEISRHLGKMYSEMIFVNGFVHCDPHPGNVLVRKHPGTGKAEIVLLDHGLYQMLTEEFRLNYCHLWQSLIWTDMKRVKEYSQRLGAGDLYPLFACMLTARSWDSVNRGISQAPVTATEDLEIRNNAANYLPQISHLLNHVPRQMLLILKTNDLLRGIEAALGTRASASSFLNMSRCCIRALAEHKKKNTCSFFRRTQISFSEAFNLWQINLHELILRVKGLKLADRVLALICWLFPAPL
Protocol: (§1) Supplement 12953_2017_125_MOESM1_ESM.zip/MS_Supp Info.xlsx, sheet "KAM" | column: 10 uM KAM; 1 uM KAM; 0.1 uM KAM; 0.01 uM KAM; 0.001 uM KAM; RB50

RIPK1 = molecular target: T2, RIPK1 (Homo sapiens, UniProt Q13546);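 as to 0.001 uM KAM: median log10 fold change of treatment over DMSO control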;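 as to 0.01 uM KAM: median log10 fold change of treatment over DMSO control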;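 as to 0.1 uM KAM: median log10 fold change of treatment over DMSO control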;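 as to 1 uM KAM: median log10 fold change of treatment over DMSO control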;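 as to 10 uM KAM: median log10 fold change of treatment over DMSO control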
T2 construct: endogenous in cells; host or cells: K562
T2 sequence (Q13546 1-671): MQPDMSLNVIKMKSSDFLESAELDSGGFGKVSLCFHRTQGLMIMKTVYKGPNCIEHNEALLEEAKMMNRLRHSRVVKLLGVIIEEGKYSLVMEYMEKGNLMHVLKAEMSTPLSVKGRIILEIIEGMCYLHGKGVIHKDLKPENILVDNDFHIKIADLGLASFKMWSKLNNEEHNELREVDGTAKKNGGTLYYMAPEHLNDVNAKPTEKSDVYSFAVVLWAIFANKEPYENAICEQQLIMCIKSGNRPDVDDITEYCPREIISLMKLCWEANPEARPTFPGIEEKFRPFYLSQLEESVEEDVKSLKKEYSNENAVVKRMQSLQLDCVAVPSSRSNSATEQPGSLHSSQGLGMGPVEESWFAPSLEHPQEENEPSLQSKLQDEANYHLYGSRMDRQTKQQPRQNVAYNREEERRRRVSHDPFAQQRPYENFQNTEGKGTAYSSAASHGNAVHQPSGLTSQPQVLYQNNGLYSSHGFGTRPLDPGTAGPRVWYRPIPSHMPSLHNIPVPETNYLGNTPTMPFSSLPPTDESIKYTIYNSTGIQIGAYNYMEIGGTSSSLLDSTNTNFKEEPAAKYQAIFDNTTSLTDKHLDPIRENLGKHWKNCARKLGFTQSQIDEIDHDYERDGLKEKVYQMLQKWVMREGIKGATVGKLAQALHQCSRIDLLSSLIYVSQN
Protocol: as §1

PAK6 = molecular target: T3, PAK6 (Homo sapiens, UniProt Q9NQU5)
T3 construct: endogenous in cells; host or cells: K562
Protocol: as §1

LIMK2 = molecular target: T4, LIMK2 (Homo sapiens, UniProt P53671);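 as to 0.001 uM KAM: median log10 fold change of treatment over DMSO control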;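 as to 0.01 uM KAM: median log10 fold change of treatment over DMSO control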;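 as to 0.1 uM KAM: median log10 fold change of treatment over DMSO control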;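 as to 1 uM KAM: median log10 fold change of treatment over DMSO control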;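 as to 10 uM KAM: median log10 fold change of treatment over DMSO control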
T4 construct: endogenous in cells; host or cells: K562
Protocol: as §1

RPS6KA3 = molecular target: T5, RPS6KA3 (Homo sapiens, UniProt P51812);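 as to 0.001 uM KAM: median log10 fold change of treatment over DMSO control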;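 as to 0.01 uM KAM: median log10 fold change of treatment over DMSO control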;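 as to 0.1 uM KAM: median log10 fold change of treatment over DMSO control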;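 as to 1 uM KAM: median log10 fold change of treatment over DMSO control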;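 as to 10 uM KAM: median log10 fold change of treatment over DMSO control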
T5 construct: endogenous in cells; host or cells: K562
Protocol: as §1

AURKA = molecular target: T6, AURKA (Homo sapiens, UniProt O14965)
T6 construct: endogenous in cells; host or cells: K562
T6 sequence (O14965 1-403): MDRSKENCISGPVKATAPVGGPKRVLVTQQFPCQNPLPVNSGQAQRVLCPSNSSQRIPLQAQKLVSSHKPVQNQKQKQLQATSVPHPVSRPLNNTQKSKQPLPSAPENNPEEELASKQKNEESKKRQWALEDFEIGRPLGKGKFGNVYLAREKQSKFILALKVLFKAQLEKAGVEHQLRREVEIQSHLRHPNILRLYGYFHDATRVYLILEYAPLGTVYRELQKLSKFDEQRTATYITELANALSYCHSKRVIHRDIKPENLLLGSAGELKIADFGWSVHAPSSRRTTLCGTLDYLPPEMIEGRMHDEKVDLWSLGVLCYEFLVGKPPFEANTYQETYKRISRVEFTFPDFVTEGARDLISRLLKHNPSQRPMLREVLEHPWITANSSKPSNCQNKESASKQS
Protocol: as §1

[1] = KAM 0.001-10 uM, read-out: RB50 (the source's name)
[2] = read-out: RB50 (the source's name)

T4 sequence (P53671 whole entry): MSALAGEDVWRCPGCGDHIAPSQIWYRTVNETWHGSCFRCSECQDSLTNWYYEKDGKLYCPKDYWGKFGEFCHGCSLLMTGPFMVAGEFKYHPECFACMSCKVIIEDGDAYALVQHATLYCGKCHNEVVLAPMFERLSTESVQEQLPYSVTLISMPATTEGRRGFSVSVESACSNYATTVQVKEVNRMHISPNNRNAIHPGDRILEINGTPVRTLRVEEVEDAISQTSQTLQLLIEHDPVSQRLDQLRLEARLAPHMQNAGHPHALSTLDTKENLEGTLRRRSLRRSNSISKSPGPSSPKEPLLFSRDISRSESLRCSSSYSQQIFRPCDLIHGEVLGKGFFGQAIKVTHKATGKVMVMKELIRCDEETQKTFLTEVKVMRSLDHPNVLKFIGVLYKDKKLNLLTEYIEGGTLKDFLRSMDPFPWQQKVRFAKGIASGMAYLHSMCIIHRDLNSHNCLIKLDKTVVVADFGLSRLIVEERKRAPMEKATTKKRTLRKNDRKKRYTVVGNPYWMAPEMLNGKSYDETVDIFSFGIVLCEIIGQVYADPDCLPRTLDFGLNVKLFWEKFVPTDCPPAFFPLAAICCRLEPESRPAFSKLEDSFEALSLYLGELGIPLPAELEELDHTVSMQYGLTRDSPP
T5 sequence (P51812 whole entry): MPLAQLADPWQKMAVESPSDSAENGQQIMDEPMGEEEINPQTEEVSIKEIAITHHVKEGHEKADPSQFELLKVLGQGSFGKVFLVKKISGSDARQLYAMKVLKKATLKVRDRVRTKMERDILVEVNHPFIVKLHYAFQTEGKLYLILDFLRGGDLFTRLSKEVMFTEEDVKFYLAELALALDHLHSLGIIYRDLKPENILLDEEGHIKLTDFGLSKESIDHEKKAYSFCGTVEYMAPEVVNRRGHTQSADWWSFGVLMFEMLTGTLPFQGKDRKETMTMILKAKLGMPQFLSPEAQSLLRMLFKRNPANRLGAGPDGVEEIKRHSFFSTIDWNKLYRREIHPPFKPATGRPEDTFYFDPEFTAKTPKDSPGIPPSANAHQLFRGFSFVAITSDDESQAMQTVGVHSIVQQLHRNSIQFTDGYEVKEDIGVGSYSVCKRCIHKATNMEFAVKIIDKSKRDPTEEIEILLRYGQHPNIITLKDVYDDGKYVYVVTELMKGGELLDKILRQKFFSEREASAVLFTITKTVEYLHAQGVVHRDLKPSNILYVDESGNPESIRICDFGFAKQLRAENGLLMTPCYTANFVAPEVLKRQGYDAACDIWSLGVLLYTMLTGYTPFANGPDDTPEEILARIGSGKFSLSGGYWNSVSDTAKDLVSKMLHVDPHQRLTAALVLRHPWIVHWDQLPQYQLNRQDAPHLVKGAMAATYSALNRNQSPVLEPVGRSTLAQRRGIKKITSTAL
T3 sequence (Q9NQU5 whole entry): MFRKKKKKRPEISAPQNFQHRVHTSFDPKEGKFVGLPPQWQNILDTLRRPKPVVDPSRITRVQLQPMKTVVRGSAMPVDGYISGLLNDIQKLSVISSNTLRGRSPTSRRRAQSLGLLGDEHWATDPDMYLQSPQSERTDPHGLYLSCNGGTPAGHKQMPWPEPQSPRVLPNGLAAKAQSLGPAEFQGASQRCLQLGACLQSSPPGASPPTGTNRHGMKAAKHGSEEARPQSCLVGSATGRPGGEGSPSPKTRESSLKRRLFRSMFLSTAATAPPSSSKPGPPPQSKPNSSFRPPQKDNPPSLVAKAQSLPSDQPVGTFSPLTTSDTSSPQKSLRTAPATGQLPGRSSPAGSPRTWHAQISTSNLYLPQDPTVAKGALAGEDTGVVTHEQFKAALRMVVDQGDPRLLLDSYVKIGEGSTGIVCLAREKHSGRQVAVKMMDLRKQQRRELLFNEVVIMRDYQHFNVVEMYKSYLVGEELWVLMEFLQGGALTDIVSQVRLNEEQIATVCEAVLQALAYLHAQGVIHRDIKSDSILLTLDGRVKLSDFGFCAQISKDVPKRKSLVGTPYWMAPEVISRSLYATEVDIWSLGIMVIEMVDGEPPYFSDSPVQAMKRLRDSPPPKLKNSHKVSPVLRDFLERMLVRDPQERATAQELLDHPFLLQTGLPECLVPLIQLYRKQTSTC

## N#CCc1ccc(Nc2nc(NCCCN)cc(Nc3cc(C4CC4)[nH]n3)n2)cc1 [KAM]
ADCK1; [1]
  IC50: > 10 µM
ADCK1; relative to 0 uM KAM = 0
  0.001 uM KAM: -0.001358
  0.01 uM KAM: -0.0336
  0.1 uM KAM: -0.06203
  1 uM KAM: -0.1949
  10 uM KAM: -0.2595
RIPK1; [1]
  IC50: > 10 µM
RIPK1; relative to 0 uM KAM = 0
  0.001 uM KAM: -0.02132
  0.01 uM KAM: 0.0003889
  0.1 uM KAM: -0.08047
  1 uM KAM: -0.1016
  10 uM KAM: -0.1828
PAK6; 0.001 uM KAM
  median Log10 fold change: -0.09371
PAK6; 0.01 uM KAM
  median Log10 fold change: 0.03145
PAK6; 0.1 uM KAM
  median Log10 fold change: -0.196
PAK6; 1 uM KAM
  median Log10 fold change: -0.3777
PAK6; 10 uM KAM
  median Log10 fold change: -0.6349
PAK6; [2]
  IC50: 0.519 µM
LIMK2; [1]
  IC50: > 10 µM
LIMK2; relative to 0 uM KAM = 0
  0.001 uM KAM: -0.04927
  0.01 uM KAM: -0.08611
  0.1 uM KAM: -0.1176
  1 uM KAM: -0.1595
  10 uM KAM: 0.03187
RPS6KA3; [1]
  IC50: > 10 µM
RPS6KA3; relative to 0 uM KAM = 0
  0.001 uM KAM: -0.01612
  0.01 uM KAM: -0.01929
  0.1 uM KAM: -0.05841
  1 uM KAM: -0.1372
  10 uM KAM: -0.2816
AURKA; 0.001 uM KAM
  median Log10 fold change: 0.0112
AURKA; 0.01 uM KAM
  median Log10 fold change: -0.01229
AURKA; 0.1 uM KAM
  median Log10 fold change: -0.2365
AURKA; 1 uM KAM
  median Log10 fold change: -0.473
AURKA; 10 uM KAM
  median Log10 fold change: -0.552
AURKA; [2]
  IC50: 0.257 µM
